Patent publication US20140024030A1, “PRESELECTION OF SUBJECTS FOR THERAPEUTIC TREATMENT WITH OXYGEN SENSITIVE AGENTS BASED IN HYPOXIC STATUS” (priority 2010, published 2014)

Tests used:
[1] = test system: locally advanced or metastatic NSCLC; conditions: erlotinib 150 mg orally once daily; cited from earlier work
[2] = test system: locally advanced, unresectable or metastatic pancreatic cancer; conditions: 100 mg cohort, arms: gemcitabine plus erlotinib vs gemcitabine alone, cited from earlier work
[3] = test system: HCT116 human colon carcinoma xenograft; experiment: HCT116 xenograft model in nude mice (hypoxic tumor); type: in vivo; conditions: for efficacy at slowing tumor growth in HCT116 (high hypoxia) versus 786O (low hypoxia) tumors: comparison of HCT116 and 786O xenografts in nude mice
Procedure: Human tumor cell lines HCT116 (ATCC #CRL-247; Schroy P C, et al. Cancer 76: 201-209, 1995) and 786-O (ATCC #CRL-1932; Williams R D, et al. In Vitro 12: 623-627, 1976), were obtained from the American Type Culture Collection (Manassus, Va., USA) were cultured using routine methods until a sufficient number of cells were obtained for implantation. Studies were conducted on animals between 7 and 12 weeks of age at implantation. To implant HCT116 tumor cells into nude mice, the cells were trypsinized, washed in PBS and resuspended at a concentration of 75×10^6 cells/ml in McCoy's modified medium with 50% of BD Matrigel® Basement Membrane Matrix (BD Biosciences®, Bedford, Mass., USA). To implant 786-O tumor cells into nude mice, the cells were trypsinized as above, washed in PBS and resuspended at a concentration of 75×10^6 cells/ml in RPMI 1640 medium with 50% of BD Matrigel® Basement Membrane Matrix. Using a 27 gauge needle and 1 cc syringe, 0.1 ml of the cell suspension was injected into the corpus adiposum of nude mice. […] The location permits palpation and measurement of the tumors using external calipers. Tumor volumes (V) were calculated by caliper measurement of the width (W), length (L) and thickness (T) of tumors using the following formula: V=0.5236×(L×W×T).
As above, HCT116 and 786-O cells were cultured and implanted into nude mice using the methods in the previous example. Tumor growth was measured using calipers.
Tumor volume was monitored throughout the course of the study, until up to about 40 days from the date of tumor implantation. The exact number of days of the study depended on a number of factors including, for example, the number of days from implantation for the tumors to reach the desired volume.

[4] = test system: locally advanced or metastatic NSCLC; conditions: maintenance, erlotinib 150 mg once daily; difference not statistically significant; cited from earlier work
[5] = molecular target: JAK2V617F (Homo sapiens, UniProt O60674, V617F); conditions: cited from earlier work
[6] = test system: solid tumors; conditions: once-weekly dosing, evaluable patients; cited from earlier work
[7] = test system: advanced relapsed/refractory NSCLC; conditions: cited from earlier work
[8] = test system: GIST following progression on or intolerance to imatinib; conditions: 50 mg once daily Schedule 4/2; 5 of 55 patients; cited from earlier work
[9] = test system: gastrointestinal stromal tumor (GIST); conditions: cited from earlier work
[10] = test system: treatment-naïve RCC; conditions: cited from earlier work
[11] = test system: metastatic colorectal cancer; conditions: bevacizumab and chemotherapy vs bevacizumab and chemotherapy alone, cited from earlier work
[12] = test system: EGFR-expressing, metastatic carcinoma of the colon or rectum (mCRC); conditions: panitumumab 6 mg/kg every two weeks plus best supportive care; cited from earlier work

JAK2V617F, sequence (O60674 whole entry V617F): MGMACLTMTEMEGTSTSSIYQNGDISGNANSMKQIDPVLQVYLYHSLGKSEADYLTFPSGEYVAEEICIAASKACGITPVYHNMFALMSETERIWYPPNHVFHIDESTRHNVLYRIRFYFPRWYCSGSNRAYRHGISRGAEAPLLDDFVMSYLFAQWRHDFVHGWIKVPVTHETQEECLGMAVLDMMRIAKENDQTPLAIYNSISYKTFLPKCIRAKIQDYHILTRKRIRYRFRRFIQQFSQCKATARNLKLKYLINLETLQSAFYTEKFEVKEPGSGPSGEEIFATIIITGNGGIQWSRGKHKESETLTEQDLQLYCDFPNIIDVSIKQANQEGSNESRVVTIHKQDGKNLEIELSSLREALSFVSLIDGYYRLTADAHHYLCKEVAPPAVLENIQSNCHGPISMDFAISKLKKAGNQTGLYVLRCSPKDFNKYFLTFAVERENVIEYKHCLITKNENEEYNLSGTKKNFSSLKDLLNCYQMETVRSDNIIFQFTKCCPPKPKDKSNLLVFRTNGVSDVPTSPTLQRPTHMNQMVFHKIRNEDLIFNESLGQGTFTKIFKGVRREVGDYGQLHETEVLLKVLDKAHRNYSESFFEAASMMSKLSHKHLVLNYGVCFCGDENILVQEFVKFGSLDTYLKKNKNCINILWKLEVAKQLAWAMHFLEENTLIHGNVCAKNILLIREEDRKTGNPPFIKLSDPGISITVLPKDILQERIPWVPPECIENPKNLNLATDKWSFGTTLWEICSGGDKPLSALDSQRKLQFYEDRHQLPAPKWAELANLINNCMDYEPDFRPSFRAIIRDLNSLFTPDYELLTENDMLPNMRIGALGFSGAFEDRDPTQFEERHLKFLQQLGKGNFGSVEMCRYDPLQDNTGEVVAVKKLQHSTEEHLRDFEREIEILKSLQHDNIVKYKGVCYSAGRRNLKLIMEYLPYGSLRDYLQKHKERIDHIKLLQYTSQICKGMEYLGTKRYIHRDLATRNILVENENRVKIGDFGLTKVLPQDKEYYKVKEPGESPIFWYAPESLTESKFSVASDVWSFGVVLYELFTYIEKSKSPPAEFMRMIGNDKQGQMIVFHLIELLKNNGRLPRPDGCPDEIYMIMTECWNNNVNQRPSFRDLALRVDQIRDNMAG

Question: Which median response duration [1] does the source give for C#Cc1cccc(Nc2ncnc3cc(OCCOC)c(OCCOC)cc23)c1 [erlotinib] here?
Answer: 34.3 weeks

Question: What about the progression free survival [1] of the same molecule?
Answer: 9.9 weeks

Question: What about the survival [1] of the same molecule?
Answer: 6.7 months

Question: And the tumor response [1]?
Answer: 8.9%

Question: What about the progression free survival ([2]; p=0.006) of the same molecule?
Answer: 3.8 months

Question: What about the survival ([2]; p=0.028) of the same molecule?
Answer: 6.4 months

Question: What about the “efficacy at slowing tumor growth in HCT116 (high hypoxia) versus 786O (low hypoxia) tumors” value [3] of the same molecule?
Answer: more effective at slowing tumor growth in tumors with high levels of hypoxia

Question: What about the “tumor growth rate versus control” value ([3]; erlotinib 1x/week P.O., p=0.0224) of the same molecule?
Answer: reduced the growth rate of the tumor as compared to control

Question: What about the overall survival [4] of the same molecule?
Answer: 12 weeks

Question: What about the JAK2V617F activity [5] of the same molecule?
Answer: potent inhibitor of JAK2V617F activity

Question: Which disease control [6] does the source give for CC(C)c1cc(-c2nnc(O)n2-c2ccc3c(ccn3C)c2)c(O)cc1O [ganetespib] here?
Answer: more than half of all evaluable patients experienced disease control

Question: And the disease control rate ([7]; broad population, single agent)?
Answer: 54%

Question: And the “patients with durable, objective responses” value ([7]; patients with ALK rearrangement, four of eight)?
Answer: 50%

Question: What about the “patients who received ganetespib for 16 weeks or more” value ([7]; patients with ALK rearrangement, seven of eight) of the same molecule?
Answer: 88%

Question: What about the “patients with tumor shrinkage” value ([7]; patients with ALK rearrangement, six of eight) of the same molecule?
Answer: 75%

Question: What about the “efficacy at slowing tumor growth in HCT116 (high hypoxia) versus 786O (low hypoxia) tumors” value [3] of the same molecule?
Answer: not found to work better in the tumors with a higher level of hypoxia

Question: Which results are given for CCN(CC)CCNC(=O)c1c(C)[nH]c(/C=C2\C(=O)Nc3ccc(F)cc32)c1C [sunitinib]?
Answer: PR rate [8]: 9.1%; median OS ([9]; final analysis, sunitinib arm): 72.7 weeks; time to tumor progression (TTP) versus placebo ([9]; interim analysis, 50 mg once daily Schedule 4/2): statistically significant advantage for sunitinib over placebo in TTP; OS HR ([9]; sunitinib vs placebo, final analysis): 0.876; PFS versus IFN-α ([10]; 50 mg sunitinib once daily Schedule 4/2): statistically significant advantage for sunitinib over IFN-α in the endpoint of PFS; median OS ([10]; final analysis, arms: sunitinib vs IFN-α): 114.6 weeks; ORR versus IFN-α arm ([10]; in vivo): higher; efficacy at slowing tumor growth in HCT116 (high hypoxia) versus 786O (low hypoxia) tumors [3]: not found to work better in the tumors with a higher level of hypoxia

Question: Which results are given for “panitumumab: recombinant, human IgG2 kappa monoclonal antibody that binds to the human EGFR”?
Answer: median PFS ([11]; oxaliplatin stratum, arms: panitumumab): 8.8 months; PFS hazard ratio ([11]; panitumumab, p-value=0.0024): 1.44; PFS [12]: 96 days; efficacy at slowing tumor growth in HCT116 (high hypoxia) versus 786O (low hypoxia) tumors [3]: not found to work better in the tumors with a higher level of hypoxia
